Columns and labels:
[1] = test system: SOX2 and CD44 expression in GBO; assay: IHC of GSC markers SOX2 and CD44 in GBO, fluorescence intensity by CTCF; format: cell-based; details: GBO with vs without ROCKi
Method: To further examine whether ROCKi maintained GSC stemness, the expression of GSC markers, SOX2 and CD44, were analyzed (FIG. 6B).
where A is the two-dimensional projected area, and p is perimeter. Images were acquired with 12-bit depth, and the raw files were analyzed using NIS-Elements Viewer (Nikon) and ImageJ (NIH). Fluorescence intensity was calculated by the corrected total cell fluorescence (CTCF).
Immunohistochemistry (IHC): GBOs were fixed using 4% paraformaldehyde (Alfa Acsar, J61899AK) overnight and dehydrated using ethanol followed by xylene. Dehydrated GBOs were embedded in paraffin. Paraffin-embedded GBOs were sectioned to 5 to 10 μm thickness. Deparaffinization was done by xylene followed by ethanol. Sectioned GBOs were rehydrated with water. 10 mM sodium citrate buffer with […] was formulated for antigen retrieval and adjusted to pH 6.0. Antigen retrieval was performed at 95° C. for ten minutes. Sectioned GBOs were stained with primary antibodies: CD133, SOX2, CD44, NOTCH1, DLL1, HIF-1α, CD31, CD34, CD144, CD146, α-SMA, NG2, GFAP, Map2, S100B, VEGFR, ZO1, and POU3f2, followed by secondary staining. Cell nuclei were counter stained by Hoechst 33342 (Invitrogen, H1399). Stained GBOs were mounted using ProLong Glass Antifade Mountant with NucBlue (Invitrogen, P36981) and imaged by Nikon C2 Laser Scanning Confocal Microscope.

U251 = U251 inoculated as single cells, BR2 bioreactor, 60 and 120 rpm, 5 days of culture, with vs without ROCKi
Method: Next, the effects of Rho-associated protein kinase inhibitor (ROCKi) Y-27632 on different bioreactor culture conditions were tested. […] To verify the effects, U251 was inoculated as single cells with or without ROCKi. […] To test whether low cell proliferation is a result of apoptosis, live and dead cells were stained.

GBO (U251) = assay: Live and dead cell staining of GBO; format: cell-based; details: GBO in bioreactor, live and dead cells stained
Excerpt: Live and Dead Cell Analysis: Cells were stained with Live and Dead Cell Kit according to manufacturer's protocol (Abcam, ab115347). Sample images were acquired and analyzed using Nikon C2 Laser Scanning Confocal Microscope.

C[C@@H](N)[C@H]1CC[C@H](C(=O)Nc2ccncc2)CC1 [ROCKi, Y-27632]
expression levels of GSC markers SOX2 and CD44 [1]: not significantly different
cell proliferation (U251): inhibited cell proliferation
apoptosis (GBO (U251)): did not induce apoptosis

Source: patent US20250019665A1, “SCALABLE BIOMANUFACTURING OF TUMOR ORGANOIDS” (The Board of Trustees of The University of Alabama, priority 2023, published 2025)
